The subject of data set [1] is passive cutaneous anaphylaxis (PCA). Description: Antiallergic effects: 48 hour-homologous passive cutaneous anaphylaxis (PCA) test in rats. The format is in vivo, rat (Wistar male). The following applies: Rattus norvegicus; minimum effective dosage: suppression rate 50% or higher in at least one of three rats; oral, 1 hour before PCA challenge; read-out: Anti-allergic effect (MED). Here is the method:
Antiallergic effects of compounds were assessed by passive cutaneous anaphylaxis (PCA) test in rats. Wistar male rats weighing 180 to 220 g were used for collection of antiserum and Wistar male rats weighing 120 to 140 g for PCA test.
(i) Preparation of anti EWA serum in rat
Anti-EWA rat serum was prepared by the method of Stotland and Share [Can. J. Physiol. Pharmacol., 52, 1114, (1974)] as follows. That is, 1 mg of EWA, 20 mg of aluminium hydroxide gel and 0.5 ml of mixed vaccine of pertussis, diphtheria and tetanus were mixed, and the mixture was subcutaneously injected in 4 portions into the foot part of the rats. After 14 days, the blood of sensitized rats was collected from carotid artery. The serum was separated by centrifugation from collected blood, and kept at -80° C. Titer of the 48 hour homologous PCA tests of the serum was 1:32.
(ii) Effects on 48 hour-homologous PCA tests in rats
Groups each consisting of three male rats were used, and 0.05 ml of anti-EWA serum diluted to 8 times with a physiological saline, was sensitized passively by giving intradermal injection at two depilated points on the dorsum. After 47 hours, the test compound or its solvent (saline or CMC solution) was orally administrated, and 1 hour thereafter, PCA reaction was induced by intravenous administration of 1% Evan's blue-saline (0.5 ml/100 g) containing 2 mg of […]. After 30 minutes, animals were sacrificed by bleeding and dorsal skin was stripped to determin the extravasated dye at blue-dyed reaction site, by the method of Katayama et al. [Microbiol. Immunol., 22, 89 (1978)]. The blue-dyed spots were scissored out and placed in a test tube containing 1 ml of 1N sodium hydroxide and incubated at 37° C. for 24 hours. 9 ml of a mixture of 0.6N phosphate:acetone (5:13) was added thereto. After shaking, the mixture was centrifuged at 2500 rpm for 10 minutes. A supernatant was separated, and extravasated dye in the supernatant was quantified by measuring absorbance of the supernatant at 620 nm. Prepared calibration curve was used for the quantification. An average of measurements at the two positions was made a value for one animal, and suppression rate of the one animal was calculated by following equation: [formula]

Data set [2] has as its system experimental asthma in passively sensitized guinea pigs. Description: Effects on experimental asthma. The format is in vivo, guinea pig (Hartley male). The following applies: 50 mg/kg orally, one hour before aerosol antigen 1.5% EWA; mean + SEM of 5 or 10 animals; control 254 ± 18. The protocol:
(c) Effects on experimental asthma Guinea pigs were passively sensitized as follows. Hartley male guinea pigs weighing 350 to 500 g were intraperitoneally injected with 1 ml of rabbit EWA serum prepared by the method of Eda et al. [Folia pharmacol., Japon, 66, 237 (1970)]. The animals were treated with intraperitoneal injection of diphenhydramine (20 mg/kg) and propranolol (5 mg/kg), 30 minutes before administration of test compounds. 17 hours after the sensitization, the test compounds (50 mg/kg) were orally administrated to sensitized animals. After one hour from the administration of the test compounds, the guinea pigs were placed in plastic observation box and were exposed to an aerosal antigen of 1.5% EWA. The time until the onset of respiratory […] symptom [collapse time (second)] was measured as a result of experimental asthma.

The nature of data set [3]: Acute toxicity. The conditions noted are these: mouse, in vivo; po, mortality for seven days, male dd-mice. Here is the method:
The compounds were orally administrated (po: 300 mg/kg) to male dd-mice weighing 20 to 25 g. LD50 was determined by observing the mortality for seven days after the administration.

Data set [4] deals with trachea strips of passively sensitized guinea pigs, antigen (EWA) induced contraction. Kind of data set: Effects on passive Schultz-Dale reaction (broncho-dilatory effects). The format is cell-based, guinea pig (Hartley male). The following applies: Cavia porcellus; concentration of 50% relaxation; sensitized guinea pig trachea, antigen EWA 1 μg/ml, cumulative addition, 37° C. The protocol:
(a) Effects on passive Schultz-Dale reaction (broncho-dilatory effects). Guinea pigs were passively sensitized as follows. Hartley male guinea pigs weighing 350 to 500 g were injected intraperitoneally with rabbit anti-egg albumin (EWA) serum prepared by the method of Eda et al. [Folia pharmacol., Japon 66, 237, (1970)]. After 24 hours, the guinea pigs were stunned and exsanguinated, and then trachea was excised. The zig-zag strips of the […] prepared by the method of Emmerson and Mackay [J. Pharm. Pharmacol., 31, 798, (1979)]. The strips were suspended in Krebs-Henseleit solution at 37° C. under aeration of a mixed gas of 95% oxygen and 5% carbon dioxide, and incubated for one hour. Antigen (EWA) was then introduced in the solution (final concentration; 1 μg/ml), and the contraction was measured by isotonictrasducer (TD-112s, made by Nihon Kohden K.K., Japan) and recorded on a recorder (Type 3066, made by Yokogawa-Hokushin Denki, K.K. Japan). After the contraction curves reached plateau, the compounds were successively added in order to get cumulative concentration-relaxation curves.

Structures are written as SMILES.

Here are results for 20 compounds from patent US4994468A, “Imidazoquinolone derivatives” (Kyowa Hakko Kogyo Co., Ltd., priority 1989, dated 1991).

Broadly, the LD50 is the dose at which mortality reaches 50%. The low end stands for a more toxic substance, the high end for a less toxic substance. As a reminder, the IC50 is the concentration needed to halve the response being measured.

Turning to `CCCCn1c(=O)c2ncn(C)c2c2ccccc21` [Compound 1, 5-n-Butyl-1-methyl-1H,5H-imidazo[4,5-c]quinolin-4-one], the minimal effective dose in data set [1] is less than 10 mg/kg. Also, in data set [2], the “Experimental asthma (collapse time)” value was 517 ± 37 s. The LD50 at 168 h in data set [3] is greater than 300 mg/kg. Moreover, in data set [4], the IC50 came out at 0.0034 µM.
With `CCCCn1c(=O)c2ncn(Cc3ccccc3)c2c2ccccc21` [Compound 7, 1-Benzyl-5-n-butyl-1H,5H-imidazo[4,5-c]quinolin-4-one], in data set [1], the minimal effective dose was greater than 100 mg/kg. The same compound showed a median lethal dose (LD50) at 168 h in data set [3] greater than 300 mg/kg. Moreover, the concentration for half-maximal inhibition (IC50) in data set [4] was greater than 20 µM.
The corresponding values for `CCCCn1c(=O)c2ncn(C)c2c2cc(C)ccc21` [Compound 26, 5-n-Butyl-1,8-dimethyl-1H,5H-imidazo[4,5-c]quinolin-4-one] are 100 mg/kg, greater than 300 mg/kg and 9.8 µM.
In the case of `CCCCn1c(=O)c2ncn(C(C)C)c2c2ccccc21.Cl` [Compound 18W, 5-n-Butyl-1-isopropyl-1H,5H-imidazo[4,5-c]quinolin-4-one hydrochloride], the minimal effective dose in data set [1] was greater than 100 mg/kg. For the same compound, the “Experimental asthma (collapse time)” value in data set [2] was determined as 425 ± 50 s. Also, the 50% lethal dose (LD50) at 168 h in data set [3] was greater than 300 mg/kg. Moreover, the IC50 in data set [4] was 1.5 µM.
The like results for `CCn1c(=O)c2ncn(C)c2c2ccccc21` [Compound 5, 5-Ethyl-1-methyl-1H,5H-imidazo[4,5-c]quinolin-4-one] were, in that order, less than 10 mg/kg, 519 ± 78 s, greater than 100 mg/kg and greater than 20 µM.
Turning to `Cn1cnc2c(=O)n(C)c3ccccc3c21` [Compound 4, 1,5-Dimethyl-1H,5H-imidazo[4,5-c]quinolin-4-one], the minimal effective dose in data set [1] is greater than 10 mg/kg. Moreover, the LD50 at 168 h in data set [3] was greater than 200 mg/kg. Besides, the IC50 in data set [4] was greater than 20 µM.
The like results for `CCCCn1c(=O)c2ncn(C)c2c2ccc(Cl)cc21.Cl` [Compound 24W, 5-n-Butyl-7-chloro-1-methyl-1H,5H-imidazo[4,5-c]quinolin-4-one hydrochloride] were, in that order, greater than 100 mg/kg, greater than 300 mg/kg and 0.9 µM.
With `CCCn1c(=O)c2ncn(C)c2c2ccccc21` [Compound 6, 1-Methyl-5-n-propyl-1H,5H-imidazo[4,5-c]quinolin-4-one], the minimal effective dose in data set [1] was less than 10 mg/kg. Further, the “Experimental asthma (collapse time)” value in data set [2] is 600 ± 0 s. In data set [3], the 50% lethal dose (LD50) at 168 h is greater than 200 mg/kg. Moreover, the concentration for half-maximal inhibition (IC50) in data set [4] is less than 20 µM.
With `CCCCn1c(=O)c2nnn(C)c2c2ccccc21` [Compound 32, 5-n-Butyl-1-methyl-1H,5H-triazolo[4,5-c]quinolin-4-one], the minimal effective dose in data set [1] was greater than 100 mg/kg. The LD50 at 168 h in data set [3] is greater than 300 mg/kg. The IC50 in data set [4] was 1.6 µM.
The corresponding values for `CCCCn1c(=O)c2ncn(C)c2c2c(C)cccc21.Cl` [Compound 27W, 5-n-Butyl-1,9-dimethyl-1H,5H-imidazo[4,5-c]quinolin-4-one hydrochloride] are 100 mg/kg, greater than 300 mg/kg and greater than 20 µM.
`Cn1cnc2c(=O)n(Cc3ccco3)c3ccccc3c21` [Compound 3, 5-Furfuryl-1-methyl-1H,5H-imidazo[4,5-c]quinolin-4-one]: the minimal effective dose in data set [1] is greater than 100 mg/kg. Further, the LD50 at 168 h in data set [3] was greater than 300 mg/kg. For the same compound, in data set [4], the IC50 was greater than 20 µM.
For `CC(C)C(=O)c1c(C(C)C)nn2ccccc12` [KC 404, reference compound], the minimal effective dose in data set [1] was greater than 100 mg/kg. Also, the 50% inhibitory concentration (IC50) in data set [4] came to 0.86 µM.
`Cn1cnc2c(=O)n(CC(=O)O)c3ccccc3c21` [Compound 9, 5-Carboxymethyl-1-methyl-1H,5H-imidazo[4,5-c]quinolin-4-one]: the minimal effective dose in data set [1] was greater than 100 mg/kg. Further, in data set [2], the “Experimental asthma (collapse time)” value turned out to be 532 ± 31 s. Further, the LD50 at 168 h in data set [3] was greater than 300 mg/kg. The IC50 in data set [4] is greater than 20 µM.
On to `CCCCn1c(=O)c2nc[nH]c2c2ccccc21` [Compound 8, 5-n-Butyl-1H,5H-imidazo[4,5-c]quinolin-4-one], for which, in data set [1], the minimal effective dose is greater than 100 mg/kg. In data set [3], this compound displayed an LD50 at 168 h greater than 300 mg/kg. Moreover, in data set [4], the IC50 was greater than 20 µM.
With `Cn1c(=O)c2[nH]cnc2n(C)c1=O` [Theophylline, reference compound], the “Experimental asthma (collapse time)” value in data set [2] is 414 ± 47 s.
On to `CCCCn1c(=O)c2ncn(CCC)c2c2ccccc21.Cl` [Compound 17W, 5-n-Butyl-1-n-propyl-1H,5H-imidazo[4,5-c]quinolin-4-one hydrochloride], for which the minimal effective dose in data set [1] was greater than 100 mg/kg. In data set [2], the “Experimental asthma (collapse time)” value is 484 ± 31 s. The compound also gave a 50% lethal dose (LD50) at 168 h in data set [3] greater than 300 mg/kg. In addition, the half-inhibitory concentration (IC50) in data set [4] was found to be 2.4 µM.
On to `CCCn1c(=O)[nH]c(=O)c2[nH]cnc21` [Enprofylline, reference compound], for which, in data set [1], the minimal effective dose is no more than 100 mg/kg. Besides, in data set [4], the IC50 worked out at 10 µM.
For `CCCCn1c(=O)c2nc(S)n(C)c2c2ccccc21` [Compound 31, 5-n-Butyl-1-methyl-2-mercapto-1H,5H-imidazo[4,5-c] quinolin-4-one], in data set [1], the minimal effective dose was greater than 100 mg/kg. The “Experimental asthma (collapse time)” value in data set [2] is 284 ± 48 s. Moreover, the median lethal dose (LD50) at 168 h in data set [3] was greater than 300 mg/kg. Further, the IC50 in data set [4] is 9.6 µM.
In the case of `CCCCn1cnc2c(=O)n(CCCC)c3ccccc3c21.Cl` [Compound 19W, 1,5-Di-n-butyl-1H,5H-imidazo[4,5-c]quinolin-4-one hydrochloride], in data set [1], the minimal effective dose was greater than 100 mg/kg. In addition, the “Experimental asthma (collapse time)” value in data set [2] came to 503 ± 44 s. Moreover, the 50% lethal dose (LD50) at 168 h in data set [3] is greater than 300 mg/kg. The concentration for half-maximal inhibition (IC50) in data set [4] was found to be 6.4 µM.
The like results for `CCCCn1c(=O)c2ncn(CC)c2c2ccccc21.Cl` [Compound 16W, 5-n-Butyl-1-ethyl-1H,5H-imidazo[4,5-c]quinolin-4-one hydrochloride] were, in that order, greater than 100 mg/kg, 422 ± 43 s, greater than 300 mg/kg and 4.1 µM.
